Reference: patent US20100273876A1, “ANTIBACTERIAL FORMULATION COMPRISING A DIALKYL SULPHOSUCCINATE AND A CARBANILIDE ANTIBACTERIAL AGENT” (priority 2007, published 2010)

Tests used:
Por. gingivalis 381 = assay: Biofilm disruption assay on hydroxyapatite discs; type: cell-based, Porphyromonas gingivalis; details: Por. gingivalis 381 biofilm, DOSS 0.5% (w/v), CHX 0.2% (w/v)
Procedure: (§1) This assay was designed to determine quantitatively the relative potency of a test compound to disrupt (effectively kill) biofilms formed by a test organism on hydroxyapatite (HA) discs.
(§2) Biofilms were formed on sterile dense ceramic HA discs 7 mm diameter x 1.8 mm thick (Clarkson Chromatography) by placing the discs in the appropriate liquid media (as described above) inoculated with the test organism (0.5×10^8 cfu/ml). The HA discs were then incubated at 37° C. for ˜48 h in a 5% CO2 atmosphere (for Strep. mutans ATCC 25175) or ˜96 h under anaerobic conditions (for Por. gingivalis 381). Following the incubation period the supernatant was removed from the wells containing the HA discs and the discs were washed×3 with fresh media to ensure all planktonic cells were removed. The HA discs were then transferred to sterile bijoux bottles containing 1 ml of phosphate buffered saline (PBS) plus test compound(s) at the required concentration. After a set time period (usually 2 and/or 5 min), the HA disc was transferred to another sterile bijoux containing 1 ml of fresh growth media. Adherent cells were then harvested by vigorous vortexing for 2 minutes. A sample was then taken, serially diluted 10-fold in fresh growth media and inoculated onto agar plates in triplicate. Untreated HA discs, and HA discs added to PBS containing only the solvents used to dissolve the test compound(s), acted as controls.
(§3) The plates were then incubated as described above and subsequently examined visually for growth. Colonies were counted at an appropriate serial dilution (5-50 individual colonies visible) with the aid of a colony counter. These measurements were then converted to numbers of colony forming units (cfu), using the formula: cfu/ml=number of colonies×serial dilution factor×100 (as only a 10 μl sample was taken).
(§4) These cfu values were then converted into log10 values and plotted graphically against time of sample removal.
(§5) At each time point, samples were assessed in triplicate; the final cfu/ml value was an average (mean) of the three readings.
(§6) Biofilm disruption assays, as described above, were carried out using DOSS as the test compound and chlorhexidine (CHX) as a positive control. For these experiments, the DOSS was tested at 0.5% w/v against Por. gingivalis and 1% w/v against Strep. mutans. The ahlorhexidine was tested at a concentration of 0.2% w/v against both micro-organisms. The DOSS was dissolved in ethanol and the chlorhexidine in distilled water. All the experiments were conducted in triplicate.

P. granulosum PRP-021 = assay: Agar dilution MIC assay; type: cell-based, Propionibacterium granulosum; details: P. granulosum PRP-021 (MLS)
Procedure: (§7) The propionibacteria were cultured and maintained on Wilkins-Chalgren Anaerobe Medium (agar and broth) at pH 6.0; all cultures were incubated anaerobically at 37° C. for 72 hours.
(§8) This is a standard international method for quantitatively assessing the antimicrobial activity of a compound in a solid medium. The test compound was prepared to 40× the highest concentration required (eg, 10 mg/ml for a final concentration of 250 μg/ml) and a series of doubling dilutions were performed in a suitable solvent. A set amount of these antimicrobial stock solutions was then added to molten agar medium (ca. 55° C.), mixed thoroughly, poured into sterile Petri dishes and allowed to cool/set.
(§9) A Multipoint™ Inoculator (AQS Manufacturing Ltd, UK) was used to inoculate the plates by spotting the inocula onto the surface of the agar, delivering approximately 1 to 2 μl per spot (yielding 10^5 CFU(colony forming units) per spot).
(§10) The plate(s) were then incubated under the conditions described above, following which they were examined visually for signs of bacterial growth. The MIC value was ascertained when there was a marked reduction in, or total loss of, growth on the test plate at the lowest concentration as compared to that of the growth on the control plate.
(§11) The assays were conducted in duplicate and included a positive control (culture medium, diluting solvent and inoculum).

P. granulosum PRP-006 = assay: Agar dilution MIC assay; type: cell-based, Propionibacterium granulosum; details: P. granulosum PRP-006 (MLS)
Procedure: as §7, §8, §9, §10, §11

P. granulosum PRP-055 = assay: Agar dilution MIC assay; type: cell-based, Propionibacterium granulosum; details: P. granulosum PRP-055 (resistance None)
Procedure: as §7, §8, §9, §10, §11

P. granulosum PRP-019 = assay: Agar dilution MIC assay; type: cell-based, Propionibacterium granulosum; details: P. granulosum PRP-019 (MLSK)
Procedure: as §7, §8, §9, §10, §11

P. granulosum NCTC 11865 = assay: Agar dilution MIC assay; type: cell-based, Propionibacterium granulosum; details: P. granulosum NCTC 11865 (resistance None)
Procedure: as §7, §8, §9, §10, §11

P. granulosum PRP-044 = assay: Agar dilution MIC assay; type: cell-based, Propionibacterium granulosum; details: P. granulosum PRP-044 (MLS)
Procedure: as §7, §8, §9, §10, §11

P. granulosum PRP-043 = assay: Agar dilution MIC assay; type: cell-based, Propionibacterium granulosum; details: P. granulosum PRP-043 (MLS)
Procedure: as §7, §8, §9, §10, §11

P. granulosum PRP-005 = assay: Agar dilution MIC assay; type: cell-based, Propionibacterium granulosum; details: P. granulosum PRP-005 (MLSK)
Procedure: as §7, §8, §9, §10, §11

Strep. mutans ATCC 25175 = assay: Biofilm disruption assay on hydroxyapatite discs; type: cell-based, Streptococcus mutans; details: Strep. mutans ATCC 25175 biofilm, DOSS 1.0% (w/v), CHX 0.2% (w/v)
Procedure: as §1, §2, §3, §4, §5, §6

P. acnes PRP-008 = assay: Agar dilution MIC assay; type: cell-based, Propionibacterium acnes; details: P. acnes PRP-008 (Clin)
Procedure: as §7, §8, §9, §10, §11

P. acnes PRP-017 = assay: Agar dilution MIC assay; type: cell-based, Propionibacterium acnes; details: P. acnes PRP-017 (MLS)
Procedure: as §7, §8, §9, §10, §11

P. acnes PRP-053 = assay: Agar dilution MIC assay; type: cell-based, Propionibacterium acnes; details: P. acnes PRP-053 (Tet/MLS)
Procedure: as §7, §8, §9, §10, §11

P. acnes PRP-068 = assay: Agar dilution MIC assay; type: cell-based, Propionibacterium acnes; details: P. acnes PRP-068 (Ery)
Procedure: as §7, §8, §9, §10, §11

P. acnes PRP-059 = assay: Agar dilution MIC assay; type: cell-based, Propionibacterium acnes; details: P. acnes PRP-059 (MLS)
Procedure: as §7, §8, §9, §10, §11

P. acnes PRP-023 = assay: Agar dilution MIC assay; type: cell-based, Propionibacterium acnes; details: P. acnes PRP-023 (MLSK)
Procedure: as §7, §8, §9, §10, §11

P. acnes PRP-003 = assay: Agar dilution MIC assay; type: cell-based, Propionibacterium acnes; details: P. acnes PRP-003 (Tet)
Procedure: as §7, §8, §9, §10, §11

For dioctyl sodium sulphosuccinate [DOSS], the Viable cell counts (Por. gingivalis 381; 0 min) was 7.53 log10 cfu/ml, the Viable cell counts (Por. gingivalis 381; 2 min) was 5.08 log10 cfu/ml and the Viable cell counts (Por. gingivalis 381; 5 min) was 3.34 log10 cfu/ml. It also gave an MIC (P. granulosum PRP-021) of 31.25 µg/mL, an MIC (P. granulosum PRP-006) of 31.25 µg/mL and an MIC (P. granulosum PRP-055) of 31.25 µg/mL. The MIC (P. granulosum PRP-019) was 15.6 µg/mL, the MIC (P. granulosum NCTC 11865) was 31.25 µg/mL and the MIC (P. granulosum PRP-044) was 31.25 µg/mL. The MIC (P. granulosum PRP-043) was 31.25 µg/mL, the MIC (P. granulosum PRP-005) was 15.6 µg/mL and the Viable cell counts (Strep. mutans ATCC 25175; 0 min) was 6.56 log10 cfu/ml. For the same substance, the Viable cell counts (Strep. mutans ATCC 25175; 2 min) was 2.87 log10 cfu/ml, the Viable cell counts (Strep. mutans ATCC 25175; 5 min) was 3.36 log10 cfu/ml and the MIC (P. acnes PRP-008) was 15.6 µg/mL. For the same substance, the MIC (P. acnes PRP-017) was 15.6 µg/mL, the MIC (P. acnes PRP-053) was 15.6 µg/mL and the MIC (P. acnes PRP-068) was 15.6 µg/mL. The MIC (P. acnes PRP-059) was 15.6 µg/mL, the MIC (P. acnes PRP-023) was 15.6 µg/mL and the MIC (P. acnes PRP-003) was 15.6 µg/mL.
